Read-outs that look alike come from different tables or passages of the source.
Assays:
[1] = tested on: A172; assay: CCK-8 in vitro anti-tumor proliferation assay; type: cell-based; conditions: Homo sapiens, A 172; Table 3; 72 hours
Experimental: (§1) Example 3: In vitro anti-tumor proliferation assay of the compounds. The purpose of this experiment was to use CCK-8 to detect the in vitro inhibitory activity of the compounds of the present invention against the proliferation of tumor cells. The main reagents, such as RPMI-1640, DMEM high-glucose culture medium, fetal bovine serum, trypsin, etc., were purchased from Gibco BRL. CCK8 and DMSO were products of Sigma. For in vitro experiment, the test compounds were prepared as 10 mM stock solutions in DMSO and stored at −20° C. in the refrigerator in the dark for later use, then diluted to desired concentration with complete culture medium before use. The human lung cancer cells, colon cancer cells, breast cancer cells, glioblastoma cells, human myelomonocytic leukemia cells, and human Burkitt's lymphoma cells used in this experiment were all purchased from the American ATCC company and preserved in laboratory of the inventors. All the above cell lines were cultured in RPMI-1640 complete medium or DMEM complete medium containing 10% fetal bovine serum, 100 U/mL penicillin, and 100 μg/mL streptomycin under 5% carbon dioxide, 37° C. conditions. […] The previous culture medium was discarded, fresh culture medium was added to resuspend the cells, and then the cells were counted. According to the growth rate of different cells, the cell seeding concentration was determined, generally being 3000-5000 cells/well. After determining the seeding concentration, the cell suspension was diluted to desired concentrations with fresh culture medium, and then added to a 96-well plate with 100 μL per well, and 200 μL of PBS was added to the edge wells to prevent evaporation of the culture medium. On the second day, drug treatment was performed. First, the compounds were diluted into a series of gradients with culture medium, and then the drug solution was added to the 96-well plate, with 3 parallel wells for each gradient. Each plate set a blank control group, and ONC201 was used as the positive control group.

[2] = tested on: A549; assay: CCK-8 in vitro anti-tumor proliferation assay; type: cell-based; conditions: Homo sapiens, read-out: IC50(uM) A549
Experimental: as §1

[3] = tested on: DLD1; assay: CCK-8 in vitro anti-tumor proliferation assay; type: cell-based; conditions: Homo sapiens, DLD-1, 72 hours
Experimental: as §1

[4] = tested on: HCT115; assay: CCK-8 in vitro anti-tumor proliferation assay; type: cell-based; conditions: Homo sapiens; Table 4; 72 hours
Experimental: as §1

[5] = tested on: HCT116; assay: CCK-8 in vitro anti-tumor proliferation assay; type: cell-based; conditions: Homo sapiens, HCT-116, 72 hours
Experimental: as §1

[6] = tested on: HT29; assay: CCK-8 in vitro anti-tumor proliferation assay; type: cell-based; conditions: Homo sapiens, HT-29; Table 4; 72 hours
Experimental: as §1

[7] = tested on: MV-4-11; assay: CCK-8 in vitro anti-tumor proliferation assay; type: cell-based; conditions: Homo sapiens, read-out: IC50(uM) MV-4-11
Experimental: as §1

[8] = tested on: Raji; assay: CCK-8 in vitro anti-tumor proliferation assay; type: cell-based; conditions: Homo sapiens, read-out: IC50(uM) Raji
Experimental: as §1

[9] = tested on: SW480; assay: CCK-8 in vitro anti-tumor proliferation assay; type: cell-based; conditions: Homo sapiens, Table 4, 72 hours
Experimental: as §1

[10] = tested on: SW620; assay: CCK-8 in vitro anti-tumor proliferation assay; type: cell-based; conditions: Homo sapiens, SW-620, 72 hours
Experimental: as §1

[11] = target: T1, HsClpP (Homo sapiens, UniProt Q16740); assay: Isothermal Titration calorimetry (ITC); type: binding; conditions: FIG. 3
T1 sequence (Q16740 57-277): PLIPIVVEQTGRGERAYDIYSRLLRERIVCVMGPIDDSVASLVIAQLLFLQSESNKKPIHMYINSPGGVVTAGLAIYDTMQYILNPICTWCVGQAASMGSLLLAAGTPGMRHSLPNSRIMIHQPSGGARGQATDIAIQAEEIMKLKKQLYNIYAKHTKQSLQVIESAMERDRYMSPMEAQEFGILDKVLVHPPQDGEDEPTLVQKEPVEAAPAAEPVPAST
Experimental: Isothermal Titration calorimetry experiments can measure the binding affinity between small molecules and proteins. Binding affinity is generally measured and reported through the equilibrium dissociation constant (Kd), where the smaller the Kd value, the higher the binding affinity of the ligand for its target. In the experiment, the loading-samples and proteins were placed in a degassing apparatus at 30° C., with a vacuum degree of 400 mmHg or higher, and degassed for 10 minutes. A 50 mL PBS buffer was prepared, and the sample cell and syringe were rinsed. After rinsing, the liquid in the sample cell was completely removed, and the degassed protein and small molecules were taken out. The sample cell was thoroughly washed with protein, and the syringe was rinsed with the small molecule solution 3-5 times. After washing, 250 μL of protein (0.5 mM) was extracted using the syringe, avoiding the formation of bubbles. Subsequently, 200 μL was injected into the sample cell. 50 μL of the small molecule solution (0.1 mM) was extracted using an injector, again avoiding the formation of bubbles. The titration syringe was loaded onto the instrument, and titration commenced after the instrument was balanced.

[12] = tested on: human normal embryonic kidney cells (HEK293); assay: In vitro cytotoxicity assay, CCK-8; conditions: up to 50μM; FIG. 13
Experimental: (§2) CCK8 and DMSO were products of Sigma. For in vitro experiment, the test compounds were prepared as 10 mM stock solutions in DMSO and stored at −20° C. in the refrigerator in the dark for later use, then diluted to desired concentration with complete culture medium before use. […] The previous culture medium was discarded, fresh culture medium was added to resuspend the cells, and then the cells were counted. According to the growth rate of different cells, the cell seeding concentration was determined, generally being 3000-5000 cells/well. After determining the seeding concentration, the cell suspension was diluted to desired concentrations with fresh culture medium, and then added to a 96-well plate with 100 μL per well, and 200 μL of PBS was added to the edge wells to prevent evaporation of the culture medium. On the second day, drug treatment was performed.

[13] = tested on: rat myocardial cells (H9C2); assay: In vitro cytotoxicity assay, CCK-8; conditions: FIG. 13
Experimental: as §2

[14] = target: T1, HsClpP; assay: HsClpP enzyme hydrolysis of short peptide substrate AC-WLA-AMC; conditions: for Regulatory efficacy 1 μM / Regulatory efficacy 10 μM: promoting hydrolysis of short peptide substrate by HsClpP, relative to blank control
Experimental: This study evaluated the regulatory activity of the compounds on HsClpP by examining the hydrolysis effects of HsClpP protein on the AC-WLA-AMC substrate . […] The small molecules and the HsClpP protein solution were added to a flat-bottomed black 96-well plate, with three replicate wells for each group. […] DMSO was used as a negative control instead of small molecules. The multiple of readings at different concentrations against the readings of DMSO group was recorded as an index for evaluation of hydrolysis activity. . . . GraphPad Prism was used to plot the obtained multiple values and calculate the EC50 values.

[15] = tested on: HCT116 cells; assay: Wound-healing cell migration assay; type: cell-based, human; conditions: 24 hours; compared to the control group and the ONC201 group; FIG. 12
From the text: Example 12: In vitro Antitumor Cell Migration Assay of Preferred Compound. Studies have shown that increased expression of HsClpP is crucial for the proliferation and migration of certain cancer cell lines, while functional disruption of HsClpP in cancer cells can inhibit cell migration.
Wound-Healingcan be used to detect the invasive ability of adherent tumor cells. By observing the healing ability of tumor cells towards scratches under different conditions, the impact of the compound on the ability of tumor cell migration can be reflected.

[16] = tested on: SDHB and ATF4; assay: Levels of SDHB and ATF4 in HCT116 cells; conditions: dose-dependently; FIG. 7
[17] = tested on: HCT116 cells; assay: Apoptosis, Annexin V/PI staining; conditions: 1.25 μM; FIG. 10
[18] = tested on: HCT116 CRC xenograft tumors; assay: HCT116 xenograft nude mouse model; conditions: 100 mg/kg oral, twice a week, six doses
From the text: (A) Observation of tumor size in mice after treatment; (B) Photographs of excised tumor tissue after treatment; (C) Relative change in mouse body weight during treatment; (D) Relative volume change of tumors during treatment. Measurements were taken every other day; N=6 animals per group.

[19] = Table 3, read-out: IC50(uM) DLD1
[20] = Table 4, read-out: IC50 ( M) DLD1
[21] = Table 4, read-out: IC50 ( M) HCT116
[22] = Table 5, HCT116, read-out: IC50
[23] = Table 3, read-out: IC50(uM) SW620
[24] = Table 4, read-out: IC50 ( M) SW620

IC50 [1]	IC50 ([2]; A549, Table 3, 72 hours)	IC50 [3, 19]	IC50 [3, 20]	IC50 [4]	IC50 [5, 21]	IC50 [5, 22]	IC50 [6]	IC50 ([7]; MV4-11, Table 3, 72 hours)	IC50 ([8]; Table 3, 72 hours)	IC50 [9]	IC50 [10, 23]	IC50 [10, 24]	ITC thermodynamics of titration with HsClpP (AH, AS) [11]	Regulatory efficacy 1 μM [14]	Regulatory efficacy 10 μM [14]	Structure (SMILES)	cytotoxicity on HEK293 cells [12]	inhibitory activity on H9C2 cells [13]	ATF4 level [16]	SDHB level [16]	further results
0.15 µM	0.4 µM	0.2 µM	0.09 µM	0.12 µM	9e-08 M	1e-07 M	0.08 µM	0.05 µM	0.1 µM	0.12 µM	0.15 µM	0.09 µM		+ +	+ +	O=c1nc2n(c3c1CN(Cc1ccccc1)CC3)CCN2Cc1ccc(F)cc1F [Compound 19, 7-benzyl-3-(2,4-difluorobenzyl)-2,3,6,7,8,9-hexahydroimidazo[1,2-a]pyrido[3,4-e]pyrimidin-5(1H)-one]					
0.1 µM	0.5 µM	0.5 µM	0.15 µM	0.2 µM	1e-07 M	1e-07 M	0.05 µM	0.025 µM	0.1 µM	0.12 µM	0.14 µM	0.15 µM		+ +	+ +	O=c1nc2n(c3c1CN(Cc1ccccc1)CC3)CCN2Cc1ccc(F)c(F)c1 [Compound 20, 7-benzyl-3-(3,4-difluorobenzyl)-2,3,6,7,8,9-hexahydroimidazo[1,2-a]pyrido[3,4-e]pyrimidin-5(1H)-one]					

More lines, now with the values behind:

Structure (SMILES)	IC50 [1]	IC50 ([2]; A549, Table 3, 72 hours)	IC50 [3, 19]	IC50 [3, 20]	IC50 [4]	IC50 [5, 21]	IC50 [5, 22]	IC50 [6]	IC50 ([7]; MV4-11, Table 3, 72 hours)	IC50 ([8]; Table 3, 72 hours)	IC50 [9]	IC50 [10, 23]	IC50 [10, 24]	ITC thermodynamics of titration with HsClpP (AH, AS) [11]	Regulatory efficacy 1 μM [14]	Regulatory efficacy 10 μM [14]	cytotoxicity on HEK293 cells [12]	inhibitory activity on H9C2 cells [13]	ATF4 level [16]	SDHB level [16]	further results
Cc1ccccc1CN1CCn2c1nc(=O)c1c2CCN(Cc2ccccc2)C1 [Compound 1, 7-benzyl-3-(2-methylbenzyl)-2,3,6,7,8,9-hexahydroimidazo[1,2-a]pyrido[3,4-e]pyrimidin-5(1H)-one]	0.5 µM	2 µM	0.2 µM	0.5 µM	1.3 µM	4e-07 M	4e-07 M	5.3 µM	0.8 µM	1 µM	1.1 µM	0.6 µM	0.6 µM	AH<0, AS<0	+ +	+ +	no significant cytotoxicity	no significant inhibitory activity			Kd, affinity for HsClpP ([11]; compared to ONC201): much higher affinity for HsClpP compared to ONC201; EC50 ([14]; excitatory activity on HsClpP): 0.3 µM
O=c1nc2n(c3c1CN(Cc1ccccc1)CC3)CCN2Cc1ccc(F)c(Br)c1 [Compound 21, 7-benzyl-3-(3-bromo-4-fluorobenzyl)-2,3,6,7,8,9-hexahydroimidazo[1,2-a]pyrido[3,4-e]pyrimidin-5 (1H)-one]														AH<0, AS<0	+ +	+ +			ATF4 accumulation	reduction in SDHB level	migration ability of HCT116 cells [15]: significantly inhibited
Cc1ccccc1CN1C(=O)C2=C(CCN(Cc3ccccc3)C2)N2CCN=C12 [ONC201, reference compound]																	no significant cytotoxicity	no significant inhibitory activity	ATF4 accumulation	reduction in SDHB level	IC50 ([2]; A549, 72 h): 10 µM; IC50 ([7]; MV4-11, 72 h): 5 µM; IC50 ([8]; 72 h): 2.5 µM; apoptotic rate [17]: < 4.09%
Cc1ccccc1CN1C(=O)C2=C(CCN(Cc3ccccc3)C2)N2CCN=C12 [ONC201·2HCl]																					TGI (tumor growth inhibition) [18]: 57%

From US20240287071A1, “CLASS OF IMIDAZOLIDINOPYRIMIDONE COMPOUNDS AND USE THEREOF IN TREATMENT OF HSCLPP-MEDIATED DISEASES” (SICHUAN UNIVERSITY, priority 2021, published 2024)
